System: yeast genes (level of expressed mRNA)
Test: DNA chip analysis of expressed mRNA of yeast genes after 2 h culture with a toxic chemical substance
Format: cell-based, Saccharomyces cerevisiae S288C
Experimental: Yeast (Saccharomyces cerevtisiae S288C (α SUC2mal mel gap2 CUP1)) were cultured at 25° C. on YPD medium (yeast extract 1%, polypepton 2%, glucose 2%). One of toxic chemical substances was added to the cell at logarithmic growth phase, and the cell was further cultured for two hours. Cell was cultured without any chemical substance in the same condition, and was used as control. Concentrations of the chemical substances were defined to inhibit the growth of the yeast but not lead to death.
After the completion of cultivation, the culture was centrifuged to collect the cells. To the cells, sodium acetate buffer (50 mM sodium acetate, 10 mM EDTA, 1% SDS) was added, and the mixture was shaken at 65° C. for five minutes, followed by returning to room temperature, and obtaining the supernatant, which procedure was repeated two times. To the supernatant, ½ amount of a solution of phenol/chloroform was added, and the mixture was centrifuged to give a supernatant, which was added with an equal amount of chloroform, and the mixture was centrifuged to give a supernatant. To the supernatant, an equal amount of isopropanol containing 0.3 M sodium acetate was added, and the mixture was allowed to stand at room temperature for 30 minutes, after which the mixture was centrifuged to give a sediment of the whole RNAs. Seventy % ethanol was added to the sediment, and the mixture was again centrifuged to give a sediment, which was then dried and dissolved in water. mRNA was isolated from the whole RNAs as followings. In view of the fact that a poly A chain is attached to the 3′ terminus of mRNA, a polynucleotide having a poly T structure which was immobilized on the surface of latex beads was used to trap the mRNA, and then the mRNA was washed and eluted with spine column (Oligotex-dT30<Super>mRNA Purification Kit, Takara). Reverse transcription of the mRNA was conducted with a reverse transcriptase (Super Script II Reverse Transcriptase; catalogue No. 18064-014, GibcoBRL) using fluorescence-labeled nucleotides to give cDNAs that were introduced with Cy3-dUTP or Cy5-dUTP during the reverse transcription.
The labeled cDNAs were dissolved in TE buffer (10 mM Tris-HCl/1 mM EDTA, pH8.0), and the solution was dropped on the DNA chip containing the whole genes of yeast (DNA Chip Research Inc. Japan) so that the cDNAs were hybridized on the DNA chip at 65° C. for over 12 hours. The fluoresces intensity of the DNA chip was read with a scanner, and the ratio relative to the fluorescence intensity resulting from the absence of chemical substance was estimated as the following, which is shown in Tables 1 to 9: [formula]
In the Tables, “Intensity” indicated in the rightmost column is a value of the level of expressed mRNA of each gene in control cells as divided by the average level of the expressions of the whole genes.

For `N#Cc1c(Cl)c(Cl)c(Cl)c(C#N)c1Cl` [(9), 2,4,5,6-tetrachloro-1,3-benzenedicarbonitrile], the “The level of expressed mRNA in the presence of chemical substance/The level of expressed mRNA in the absence of chemical substance” value (yeast gene YKL039W) was 1.3, the “The level of expressed mRNA in the presence of chemical substance/The level of expressed mRNA in the absence of chemical substance” value (yeast gene YKL041W) was 1.6 and the “The level of expressed mRNA in the presence of chemical substance/The level of expressed mRNA in the absence of chemical substance” value (yeast gene YKL139W) was 1.6. The “The level of expressed mRNA in the presence of chemical substance/The level of expressed mRNA in the absence of chemical substance” value (yeast gene YKL165C) was 0.4, the “The level of expressed mRNA in the presence of chemical substance/The level of expressed mRNA in the absence of chemical substance” value (yeast gene YKL193C) was 1.0 and the “The level of expressed mRNA in the presence of chemical substance/The level of expressed mRNA in the absence of chemical substance” value (yeast gene YKR014C) was 2.4. The “The level of expressed mRNA in the presence of chemical substance/The level of expressed mRNA in the absence of chemical substance” value (yeast gene YLR093C) was 1.5, the “The level of expressed mRNA in the presence of chemical substance/The level of expressed mRNA in the absence of chemical substance” value (yeast gene YLR120C) was 1.8 and the “The level of expressed mRNA in the presence of chemical substance/The level of expressed mRNA in the absence of chemical substance” value (yeast gene YLR136C) was 0.9. For the same molecule, the “The level of expressed mRNA in the presence of chemical substance/The level of expressed mRNA in the absence of chemical substance” value (yeast gene YLR178C) was 4.3, the “The level of expressed mRNA in the presence of chemical substance/The level of expressed mRNA in the absence of chemical substance” value (yeast gene YLR250W) was 2.7 and the “The level of expressed mRNA in the presence of chemical substance/The level of expressed mRNA in the absence of chemical substance” value (yeast gene YLR327C) was 3.0. For the same molecule, the “The level of expressed mRNA in the presence of chemical substance/The level of expressed mRNA in the absence of chemical substance” value (yeast gene YLR356W) was 2.3, the “The level of expressed mRNA in the presence of chemical substance/The level of expressed mRNA in the absence of chemical substance” value (yeast gene YLR362W) was 3.5 and the “The level of expressed mRNA in the presence of chemical substance/The level of expressed mRNA in the absence of chemical substance” value (yeast gene YLR391W) was 0.4. For the same molecule, the “The level of expressed mRNA in the presence of chemical substance/The level of expressed mRNA in the absence of chemical substance” value (yeast gene YLR429W) was 0.9, the “The level of expressed mRNA in the presence of chemical substance/The level of expressed mRNA in the absence of chemical substance” value (yeast gene YMR004W) was 94.2 and the “The level of expressed mRNA in the presence of chemical substance/The level of expressed mRNA in the absence of chemical substance” value (yeast gene YMR104C) was 0.6. The “The level of expressed mRNA in the presence of chemical substance/The level of expressed mRNA in the absence of chemical substance” value (yeast gene YMR219W) was 2.3, the “The level of expressed mRNA in the presence of chemical substance/The level of expressed mRNA in the absence of chemical substance” value (yeast gene YMR226C) was 2.6 and the “The level of expressed mRNA in the presence of chemical substance/The level of expressed mRNA in the absence of chemical substance” value (yeast gene YMR275C) was 2.4. The “The level of expressed mRNA in the presence of chemical substance/The level of expressed mRNA in the absence of chemical substance” value (yeast gene YMR276W) was 1.8, the “The level of expressed mRNA in the presence of chemical substance/The level of expressed mRNA in the absence of chemical substance” value (yeast gene YMR314W) was 5.9 and the “The level of expressed mRNA in the presence of chemical substance/The level of expressed mRNA in the absence of chemical substance” value (yeast gene YNL006W) was 4.0. The “The level of expressed mRNA in the presence of chemical substance/The level of expressed mRNA in the absence of chemical substance” value (yeast gene YNL007C) was 3.0, the “The level of expressed mRNA in the presence of chemical substance/The level of expressed mRNA in the absence of chemical substance” value (yeast gene YNL093W) was 1.7 and the “The level of expressed mRNA in the presence of chemical substance/The level of expressed mRNA in the absence of chemical substance” value (yeast gene YNL333W) was 2.3. The “The level of expressed mRNA in the presence of chemical substance/The level of expressed mRNA in the absence of chemical substance” value (yeast gene YNR010W) was 1.7, the “The level of expressed mRNA in the presence of chemical substance/The level of expressed mRNA in the absence of chemical substance” value (yeast gene YNR069C) was 5.5 and the “The level of expressed mRNA in the presence of chemical substance/The level of expressed mRNA in the absence of chemical substance” value (yeast gene YOL013C) was 0.8. The “The level of expressed mRNA in the presence of chemical substance/The level of expressed mRNA in the absence of chemical substance” value (yeast gene YOL164W) was 4.9, the “The level of expressed mRNA in the presence of chemical substance/The level of expressed mRNA in the absence of chemical substance” value (yeast gene YOR036W) was 1.2 and the “The level of expressed mRNA in the presence of chemical substance/The level of expressed mRNA in the absence of chemical substance” value (yeast gene YOR117W) was 3.5. For the same molecule, the “The level of expressed mRNA in the presence of chemical substance/The level of expressed mRNA in the absence of chemical substance” value (yeast gene YOR124C) was 2.0, the “The level of expressed mRNA in the presence of chemical substance/The level of expressed mRNA in the absence of chemical substance” value (yeast gene YOR132W) was 2.8 and the “The level of expressed mRNA in the presence of chemical substance/The level of expressed mRNA in the absence of chemical substance” value (yeast gene YOR157C) was 5.7. For the same molecule, the “The level of expressed mRNA in the presence of chemical substance/The level of expressed mRNA in the absence of chemical substance” value (yeast gene YOR181W) was 0.6, the “The level of expressed mRNA in the presence of chemical substance/The level of expressed mRNA in the absence of chemical substance” value (yeast gene YOR185C) was 1.9 and the “The level of expressed mRNA in the presence of chemical substance/The level of expressed mRNA in the absence of chemical substance” value (yeast gene YOR198C) was 2.4. For the same molecule, the “The level of expressed mRNA in the presence of chemical substance/The level of expressed mRNA in the absence of chemical substance” value (yeast gene YOR259C) was 2.7, the “The level of expressed mRNA in the presence of chemical substance/The level of expressed mRNA in the absence of chemical substance” value (yeast gene YOR261C) was 5.5 and the “The level of expressed mRNA in the presence of chemical substance/The level of expressed mRNA in the absence of chemical substance” value (yeast gene YOR288C) was 0.9. The “The level of expressed mRNA in the presence of chemical substance/The level of expressed mRNA in the absence of chemical substance” value (yeast gene YOR355W) was 0.1, the “The level of expressed mRNA in the presence of chemical substance/The level of expressed mRNA in the absence of chemical substance” value (yeast gene YOR383C) was 1.2 and the “The level of expressed mRNA in the presence of chemical substance/The level of expressed mRNA in the absence of chemical substance” value (yeast gene YPL089C) was 0.4. The “The level of expressed mRNA in the presence of chemical substance/The level of expressed mRNA in the absence of chemical substance” value (yeast gene YPL109C) was 1.2, the “The level of expressed mRNA in the presence of chemical substance/The level of expressed mRNA in the absence of chemical substance” value (yeast gene YPL149W) was 5.6 and the “The level of expressed mRNA in the presence of chemical substance/The level of expressed mRNA in the absence of chemical substance” value (yeast gene YPL154C) was 2.8. The “The level of expressed mRNA in the presence of chemical substance/The level of expressed mRNA in the absence of chemical substance” value (yeast gene YPR103W) was 5.5 and the “The level of expressed mRNA in the presence of chemical substance/The level of expressed mRNA in the absence of chemical substance” value (yeast gene YPR108W) was 3.7.

— patent US20050112573A1, “Method of detecting toxic substance” (priority 2001, published 2005)
